{
  "source": "patent US20170071966A1",
  "about": "“PHARMACEUTICAL COMPOSITION” (priority 2014, published 2017)",
  "origin": "cited, not measured here",
  "key": {"[1]": {"test_system": "mice exposed to whole body radiation", "conditions": "beta-carotene alone, given orally before or after whole body radiation"}, "[2]": {"conditions": "a few subjects, gram quantities"}, "[3]": {"experiment": "not given", "remark": "listed apart in the source"}, "[4]": {"conditions": "mice, drinking water 10, 20 and 30 mg/ml (4000, 8000, 12000 mg/kg body weight), 19-day experiment"}, "[5]": {"conditions": "gerbils, 1% in the food for 8 weeks"}, "[6]": {"conditions": "Nakane et al. 1996"}, "[7]": {"conditions": "Zhang et al. 1994"}, "[8]": {"conditions": "Senel et al. 1994"}},
  "note": "Like-named read-outs stand apart in the source and are kept apart here.",
  "data": [
    {"smiles": "CC1=C(/C=C/C(C)=C/C=C/C(C)=C/C=C/C=C(C)/C=C/C=C(C)/C=C/C2=C(C)CCCC2(C)C)C(C)(C)CCC1", "note": "[beta-carotene]", "values": [
      {"measurement": "survival from radiation", "setting": "[1]", "result": "enhance survival"},
      {"measurement": "risk of hypervitaminosis A", "setting": "high beta-carotene doses", "result": "no risk of hypervitaminosis A"},
      {"measurement": "long-term safety", "setting": "patients with erythropoietic protoporphyria, 180 to 300 mg per day", "result": "safe at the highest daily dose for a lifetime"},
      {"measurement": "acute toxicity", "setting": "surveillance over the decades it was a prescription drug", "result": "no known acute toxicity"}
    ]},
    {"smiles": "Nc1nc2c(ncn2[C@@H]2O[C@H](COP(=O)(O)O)[C@@H](O)[C@H]2O)c(=O)[nH]1", "note": "[guanosine monophosphate, Guanosine Monophosphate]", "values": [
      {"measurement": "ill effects", "setting": "[2]", "result": "no known ill effects"},
      {"measurement": "water solubility", "setting": "[3]", "result": "highly water-soluble"},
      {"measurement": "ill effects", "setting": "[4]", "result": "no obvious ill effects"}
    ]},
    {"smiles": "Nc1nc2c(ncn2[C@@H]2O[C@H](CO)[C@@H](O)[C@H]2O)c(=O)[nH]1", "note": "[guanosine]", "values": [
      {"measurement": "deleterious effects", "setting": "[5]", "result": "no obvious deleterious effects"},
      {"measurement": "water solubility", "setting": "[3]", "result": "slightly water-soluble"}
    ]},
    {"smiles": "C[C@H](CCC(=O)[O-])[C@H]1CC[C@H]2[C@@H]3[C@H](O)C[C@@H]4C[C@H](O)CC[C@]4(C)[C@H]3C[C@H](O)[C@]12C.[Na+]", "note": "[sodium cholate, Sodium cholate]", "values": [
      {"measurement": "absorption of luteinizing hormone releasing hormone", "setting": "[6]", "result": "increased the absorption"},
      {"measurement": "buccal absorption of insulin", "setting": "[7]", "result": "increased the buccal absorption"},
      {"measurement": "increase of mucosal permeability of fluorescein isothiocyanate", "setting": "[8]", "result": "100-200 times"}
    ]}
  ]
}
